Molecules are shown by their SMILES.

The experiment relates to NICD (Notch intracellular domain) CSL-bla reporter in HeLa cells. The experiment is described as follows: Notch assay (CellSensor T-REx NICD CSL-bla HeLa beta-lactamase reporter; Method 1 / Method 2). Type of experiment: cell-based. Conditions: Homo sapiens, 10 μM compound, Method 2 (40 nL of 1000× compound added to plate with Echo), read-out: inhibiton (%) at 10 μM. The text has this: We used the CellSensor T-REx™ NICD CSL-bla HeLa cell line, which was engineered by lentiviral transduction of HeLa cells with a Notch response element driving beta-lactamase reporter gene expression (CSL-bla) along with DOX (doxycycline)-inducible NICD (Notch intracellular domain) constructs. Addition of DOX to these cells allows for regulated NICD transcription factor expression and subsequent beta-lactamase expression.
Specifically, the following protocol was used.
NOTCH ASSAY PROTOCOL (Method 2)
• 1. Add 40 nL/well of working concentration of 1000× compound to 384-well assay plate with Echo. • 2. Plate Cells: 35 μl/well of HeLa/T-REx™ NICD CSL-bla cells at 10^3 cells/well complete medium into 384-well plate. • 3. Add 5 μl 8× Doxycycline in Assay Medium to the treated wells, and 5 μl Assay Medium to the Untreated and cell free control wells. • 4. Incubate the assay plate in a humidified 37° C./5% CO2 incubator for 16-20 hours. • 5. Preparation of 6× LiveBLAzer™-FRET B/G Substrate (CCF4-AM) Mixture according to the manual and cell loading should be done in the absence of direct strong lighting. • 6. Remove assay plate from the humidified 37° C./5% CO2 incubator. Add 8 μl of 6× Substrate Mixture from Step 5 to each well. Cover the plate to protect it from light and evaporation. Incubate at room temperature for 4 hours. • 7. Reading an Assay Plate using the following filter selections:
• 8. Data analysis: Use the assay plate layout to identify the location of the Cell-free wells. These control wells are used for background subtraction. Determine the average emission from the Cell-free wells at both 460 nm (Average Blue Background) and 530 nm(Average Green Background). Subtract the Average Blue Background (data collected at 460 nm) from all of the blue emission data. Subtract the Average Green background (data collected at 530 nm) from all of the green emission data. Calculate the Blue/Green Emission Ratio for each well, by dividing the background-subtracted blue emission values by the background-subtracted green emission values.
Instead of Step 1 to Step 3, the following Step a to Step d can also be performed. The subsequent steps are the same as Method 2, after Step 4 (Method 1). • a. Plate Cells: 32 μL/well of HeLa/T-REx™ NICD CSL-bla cells at 10^3 cells/well complete medium into 384-well plate. • b. Prepare 10× compounds in assay medium. • c. Add 4 μL compounds or 1% DMSO in assay medium to the cells. • d. Add 4 μL 10×Doxycycline in Assay Medium to the treated wells, and 4 μL Assay Medium to the Untreated and cell free control wells.
The results are shown in Table 13 (Table 13-1 to Table 13-2).
Regarding `CC[C@H](C)CN1CC2N(C(=O)OCC(C)C)O[C@H](CC3CCCCC3)C(=O)N2[C@@H](CCCCN)C1=O` (stereo partly drawn) [Compound I-40, (3R,6S)-isobutyl 6-(4-aminobutyl)-3-(cyclohexylmethyl)-8-((S)-2-methylbutyl)-4,7-dioxohexahydropyrazino[2,1-c][1,2,4]oxadiazine-1(6H)-carboxylate], the inhibition at 10 µM amounted to 124%.
Take `CC(C)C[C@H]1C(=O)N(CCc2ccc(O)cc2)CC2N(C(=O)OCCc3ccc(O)cc3)O[C@H](Cc3ccc(O)cc3)C(=O)N21` (stereo partly drawn) [Compound I-41, (3R,6S)-4-hydroxyphenethyl 3-(4-hydroxybenzyl)-8-(4-hydroxyphenethyl)-6-isobutyl-4,7-dioxohexahydropyrazino[2,1-c][1,2,4]oxadiazine-1(6H)-carboxylate]: the inhibition at 10 µM turned out to be 59.3%.
Under `COC(=O)N1O[C@H](CC2CCCCC2)C(=O)N2C1CN(CCc1cccc3ccccc13)C(=O)[C@@H]2CCCCN` (stereo partly drawn) [Compound I-42, (3R,6S)-methyl 6-(4-aminobutyl)-3-(cyclohexylmethyl)-8-(2-(naphthalen-1-yl)ethyl)-4,7-dioxohexahydropyrazino[2,1-c][1,2,4]oxadiazine-1(6H)-carboxylate] stands 95%.
As for `COC(=O)N1O[C@H](Cc2ccc(O)cc2)C(=O)N2C1CN(CCc1cccc3ccccc13)C(=O)[C@@H]2C` (stereo partly drawn) [Compound I-43, (3R,6S)-methyl 3-(4-hydroxybenzyl)-6-methyl-8-(2-(naphthalen-1-yl)ethyl)-4,7-dioxohexahydropyrazino[2,1-c][1,2,4]oxadiazine-1(6H)-carboxylate], the figure is 52.9%; as for `CC(C)[C@H]1C(=O)N(CCc2cccc3ccccc23)CC2N(C(=O)OCc3ccccc3)O[C@H](Cc3ccc(O)cc3)C(=O)N21` (stereo partly drawn) [Compound I-44, (3R,6S)-benzyl 3-(4-hydroxybenzyl)-6-isopropyl-8-(2-(naphthalen-1-yl)ethyl)-4,7-dioxohexahydropyrazino[2,1-c][1,2,4]oxadiazine-1(6H)-carboxylate], 63.1%; as for `CCCC[C@H]1C(=O)N(CCc2cccc3ccccc23)CC2N(C(=O)OCCc3ccc(O)cc3)O[C@H](Cc3ccc(O)cc3)C(=O)N21` (stereo partly drawn) [Compound I-45, (3R,6S)-4-hydroxyphenethyl 6-butyl-3-(4-hydroxybenzyl)-8-(2-(naphthalen-1-yl)ethyl)-4,7-dioxohexahydropyrazino[2,1-c][1,2,4]oxadiazine-1(6H)-carboxylate], 54.9%.
Under `CC[C@H](C)[C@H]1C(=O)N(CCc2cccc3ccccc23)CC2N(C(=O)OCCc3ccc(O)cc3)O[C@H](Cc3ccc(O)cc3)C(=O)N21` (stereo partly drawn) [Compound I-46, (3R,6S)-4-hydroxyphenethyl 6-((S)-sec-butyl)-3-(4-hydroxybenzyl)-8-(2-(naphthalen-1-yl)ethyl)-4,7-dioxohexahydropyrazino[2,1-c][1,2,4]oxadiazine-1(6H)-carboxylate] stands 75.6%; under `O=C1[C@H](CO)N2C(=O)[C@@H](Cc3ccc(O)cc3)ON(C(=O)OCC3CCCCC3)C2CN1CCc1cccc2ccccc12` (stereo partly drawn) [Compound I-47, (3R,6S)-cyclohexylmethyl 3-(4-hydroxybenzyl)-6-(hydroxymethyl)-8-(2-(naphthalen-1-yl)ethyl)-4,7-dioxohexahydropyrazino[2,1-c][1,2,4]oxadiazine-1(6H)-carboxylate], 71.4%; under `O=C1[C@H](CO)N2C(=O)[C@@H](Cc3ccc(O)cc3)ON(C(=O)OCc3ccccc3)C2CN1CCc1cccc2ccccc12` (stereo partly drawn) [Compound I-48, (3R,6S)-benzyl 3-(4-hydroxybenzyl)-6-(hydroxymethyl)-8-(2-(naphthalen-1-yl)ethyl)-4,7-dioxohexahydropyrazino[2,1-c][1,2,4]oxadiazine-1(6H)-carboxylate], 57.3%.
`NC(=O)C[C@H]1C(=O)N(CCc2cccc3ccccc23)CC2N(C(=O)OCC3CCCCC3)O[C@H](Cc3ccc(O)cc3)C(=O)N21` (stereo partly drawn) [Compound I-49, (3R,6S)-cyclohexylmethyl 6-(2-amino-2-oxoethyl)-3-(4-hydroxybenzyl)-8-(2-(naphthalen-1-yl)ethyl)-4,7-dioxohexahydropyrazino[2,1-c][1,2,4]oxadiazine-1(6H)-carboxylate]: the inhibition at 10 µM is 92.6%.
Turning to `CCCCOC(=O)N1O[C@H](CCC(N)=O)C(=O)N2C1CN(CCO)C(=O)[C@@H]2C` (stereo partly drawn) [Compound I-50, (3R,6S)-butyl 3-(3-amino-3-oxopropyl)-8-(2-hydroxyethyl)-6-methyl-4,7-dioxohexahydropyrazino[2,1-c][1,2,4]oxadiazine-1(6H)-carboxylate], the inhibition at 10 µM turned out to be 64.6%.
As for `CC(C)NC(=O)N1O[C@H](CCCNC(=N)N)C(=O)N2C1CN(Cc1cccc3ccccc13)C(=O)[C@@H]2C` (stereo partly drawn) [Compound I-51, (3R,6S)-3-(3-guanidinopropyl)-N-isopropyl-6-methyl-8-(naphthalen-1-ylmethyl)-4,7-dioxohexahydropyrazino[2,1-c][1,2,4]oxadiazine-1(6H)-carboxamide], the figure is 55.3%; as for `C[C@H]1C(=O)N(Cc2cccc3ccccc23)CC2N(C(=O)OCC3CCCCC3)O[C@H](CCCNC(=N)N)C(=O)N21` (stereo partly drawn) [Compound I-52, (3R,6S)-cyclohexylmethyl 3-(3-guanidinopropyl)-6-methyl-8-(naphthalen-1-ylmethyl)-4,7-dioxohexahydropyrazino[2,1-c][1,2,4]oxadiazine-1(6H)-carboxylate], 51.4%.
With `C[C@H]1C(=O)N(CCC(c2ccccc2)c2ccccc2)CC2N(C(=O)OCC3CCCCC3)O[C@H](CCCNC(=N)N)C(=O)N21` (stereo partly drawn) [Compound I-53, (3R,6S)-cyclohexylmethyl 8-(3,3-diphenylpropyl)-3-(3-guanidinopropyl)-6-methyl-4,7-dioxohexahydropyrazino[2,1-c][1,2,4]oxadiazine-1(6H)-carboxylate], the inhibition at 10 µM worked out at 53.6%.
Take `NC(=O)CC[C@H]1ON(C(=O)NCCC(c2ccccc2)c2ccccc2)C2CN(Cc3cccc4ccccc34)C(=O)[C@H](Cc3ccccc3)N2C1=O` (stereo partly drawn) [Compound I-54, (3R,6S)-3-(3-amino-3-oxopropyl)-6-benzyl-N-(3,3-diphenylpropyl)-8-(naphthalen-1-ylmethyl)-4,7-dioxohexahydropyrazino[2,1-c][1,2,4]oxadiazine-1(6H)-carboxamide]: the inhibition at 10 µM turned out to be 60.4%.
Under `CC(C)C[C@H]1ON(C(=O)NCCC(c2ccccc2)c2ccccc2)C2CN(Cc3ccc4ccccc4c3)C(=O)[C@H](CCC(N)=O)N2C1=O` (stereo partly drawn) [Compound I-55, (3R,6S)-6-(3-amino-3-oxopropyl)-N-(3,3-diphenylpropyl)-3-isobutyl-8-(naphthalen-2-ylmethyl)-4,7-dioxohexahydropyrazino[2,1-c][1,2,4]oxadiazine-1(6H)-carboxamide] stands 58.7%.
Under `CC(C)C[C@H]1ON(C(=O)NCCC(c2ccccc2)c2ccccc2)C2CN(CCC(c3ccccc3)c3ccccc3)C(=O)[C@H](CCC(N)=O)N2C1=O` (stereo partly drawn) [Compound I-56, (3R,6S)-6-(3-amino-3-oxopropyl)-N,8-bis(3,3-diphenylpropyl)-3-isobutyl-4,7-dioxohexahydropyrazino[2,1-c][1,2,4]oxadiazine-1(6H)-carboxamide] stands 53%; under `CCCCCCNC(=O)N1O[C@H](Cc2ccccc2)C(=O)N2C1CN(CCC(c1ccccc1)c1ccccc1)C(=O)[C@@H]2CCC(N)=O` (stereo partly drawn) [Compound I-57, (3R,6S)-6-(3-amino-3-oxopropyl)-3-benzyl-8-(3,3-diphenylpropyl)-N-hexyl-4,7-dioxohexahydropyrazino[2,1-c][1,2,4]oxadiazine-1(6H)-carboxamide], 63.4%; under `O=C(NCCO)[C@H](Cc1ccccc1)N1CC2N(C(=O)OCCc3ccc(O)cc3)O[C@H](Cc3ccccc3)C(=O)N2[C@@H](Cc2ccccc2)C1=O` (stereo partly drawn) [Compound I-80, 4-hydroxyphenethyl (3R,6S)-3,6-dibenzyl-8-(S)-1-(2-hydroxyethyl)amino)-1-oxo-3-phenylpropan-2-yl)-4,7-dioxohexahydropyrazino[2,1-c][1,2,4]oxadiazine-1(6H)-carboxylate], 63%.

These data come from US20230374034A1, “NOVEL BICYCLIC COMPOUNDS” (PRISM BIOLAB CO., LTD., priority 2020, published 2023).
